{"source": "patent US20250304550A1", "about": "“BROMODOMAIN AND EXTRA-TERMINAL (BET) SUBFAMILY BROMODOMAIN 1 (BD1) SELECTIVE INHIBITORS AND METHODS USING SAME” (Baylor College of Medicine, priority 2022, published 2025)", "key": {"BRDT-BD1 [1]": {"biological_target": "T1, BRDT-BD1 (Homo sapiens (Human), UniProt Q58F21)", "test": "AlphaScreen bromodomain proximity assay (biotinylated JQ1 competition)", "format": "binding", "details": "for BRDT-BD1 vs. BRDT-BD2 fold: BD1 selectivity, AlphaScreen IC50 ratio"}, "[2]": {"test": "Metabolic stability assay in mouse liver microsomes", "format": "in vitro ADME", "details": "mouse, microsomes"}, "[3]": {"test": "Metabolic stability assay in human liver microsomes", "format": "in vitro ADME", "details": "human, microsomes"}, "BRD2-BD1": {"biological_target": "BRD2-BD1 (Homo sapiens (Human), UniProt P25440)", "sequence (P25440 74-180)": "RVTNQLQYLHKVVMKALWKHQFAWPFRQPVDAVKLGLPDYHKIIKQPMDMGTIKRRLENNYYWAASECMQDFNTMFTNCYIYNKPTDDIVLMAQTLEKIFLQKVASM", "test": "BromoKdELECT assay", "format": "binding"}, "BRD3-BD1": {"biological_target": "BRD3-BD1 (Homo sapiens (Human), UniProt Q15059)", "sequence (Q15059 34-140)": "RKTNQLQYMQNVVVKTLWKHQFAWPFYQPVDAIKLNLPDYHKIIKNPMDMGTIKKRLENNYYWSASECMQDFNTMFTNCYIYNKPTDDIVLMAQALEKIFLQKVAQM", "test": "BromoKdELECT assay", "format": "binding"}, "BRDT-BD1 [4]": {"biological_target": "T1, BRDT-BD1", "test": "BromoKdELECT assay", "format": "binding"}, "BRD4-BD1 [5]": {"biological_target": "T2, BRD4-BD1 (Homo sapiens (Human), UniProt O60885)", "test": "BromoKdELECT assay", "format": "binding"}, "NanoLuc-BET BD1": {"tested_on": "NanoLuc-BET BD1", "test": "NanoBRET target engagement intracellular BET bromodomain assay in HEK293 cells", "format": "cell-based, human", "details": "transiently transfected HEK293 cells"}, "NanoLuc-BRD4-BD2": {"biological_target": "NanoLuc-BRD4-BD2 (Homo sapiens (Human), UniProt O60885)", "test": "NanoBRET target engagement intracellular BET bromodomain assay in HEK293 cells", "format": "cell-based", "details": "transiently transfected HEK293 cells"}, "NanoLuc-BRDT-BD2": {"biological_target": "NanoLuc-BRDT-BD2 (Homo sapiens (Human), UniProt Q58F21)", "test": "NanoBRET target engagement intracellular BET bromodomain assay in HEK293 cells", "format": "cell-based", "details": "transiently transfected HEK293 cells"}, "[6]": {"tested_on": "MV4; 11 and MOLM-13 cells", "test": "Cell cycle analysis by flow cytometry", "format": "cell-based", "details": "24 hours of treatment at the IC50"}, "[7]": {"tested_on": "MV4; 11 and MOLM-13 cells", "test": "Apoptosis detection (Annexin V) by flow cytometry", "format": "cell-based", "details": "72 hours of treatment"}, "[8]": {"tested_on": "MYC and GAPDH expression in MV4; 11 and MOLM-13 cells", "test": "Quantitative RT-PCR analysis of MYC and GAPDH expression", "format": "cell-based", "details": "8 hours of treatment, both cell lines"}, "BRDT-BD2": {"biological_target": "BRDT-BD2 (Homo sapiens (Human), UniProt Q58F21)", "test": "AlphaScreen bromodomain proximity assay (biotinylated JQ1 competition)", "format": "binding", "details": "in Table 4 '—' = not efficient"}, "BRD4-BD1 [9]": {"biological_target": "T2, BRD4-BD1", "test": "AlphaScreen bromodomain proximity assay (biotinylated JQ1 competition)", "format": "binding"}, "BRD4-BD2": {"biological_target": "BRD4-BD2 (Homo sapiens (Human), UniProt O60885)", "test": "AlphaScreen bromodomain proximity assay (biotinylated JQ1 competition)", "format": "binding", "details": "in Table 4 '—' = not efficient"}, "AML cell line MV4; 11": {"tested_on": "AML cell line MV4; 11", "test": "Cell viability testing (CellTiterGlo, 72 hours)", "format": "cell-based", "details": "Homo sapiens, '—' = not efficient"}}, "data": [{"smiles": "CNC(=O)[C@@H](CC1CCN(C(=O)Cc2ccc3[nH]c(=O)cc(C)c3c2)CC1)NC(=O)c1ccc(-c2ccc(C)cc2C)cn1", "note": "[Compound 2, (R)-5-(2,4-dimethylphenyl)-N-(3-(1-(2-(4-methyl-2-oxo-1,2-dihydroquinolin-6-yl)acetyl)piperidin-4-yl)-1-(methylamino)-1-oxopropan-2-yl)picolinamide]", "values": [{"measurement": "IC50", "setting": "BRDT-BD1 [1]; AlphaScreen", "result": 2.1, "unit": "nM"}, {"measurement": "fold more potent than (+)-JQ1 for BRDT-BD1", "setting": "BRDT-BD1 [1]; AlphaScreen", "result": 22, "unit": "fold"}, {"measurement": "BRDT-BD1 vs. BRDT-BD2 fold", "setting": "BRDT-BD1 [1]", "result": "~5000", "unit": "fold"}, {"measurement": "metabolic stability in mouse liver microsomes (in words)", "setting": "[2]", "result": "labile"}, {"measurement": "half-life at 2 μM", "setting": "[3]", "result": 33, "unit": "min"}, {"measurement": "BRD2-BD1 selectivity over BRD2-BD2", "setting": "BRD2-BD1; BromoKdELECT", "result": 420, "unit": "fold"}, {"measurement": "IC50", "setting": "BRD2-BD1; printed as BRD2-BDT1", "result": 0.26, "unit": "nM"}, {"measurement": "IC50", "setting": "BRD3-BD1", "result": 0.13, "unit": "nM"}, {"measurement": "BRD3-BD1 selectivity over BRD3-BD2", "setting": "BRD3-BD1; BromoKdELECT", "result": 5920, "unit": "fold"}, {"measurement": "IC50", "setting": "BRDT-BD1 [4]", "result": 0.22, "unit": "nM"}, {"measurement": "IC50", "setting": "BRD4-BD1 [5]", "result": 0.29, "unit": "nM"}, {"measurement": "inhibition of tracer binding, BD1 vs BD2 (in words)", "setting": "NanoLuc-BET BD1", "result": "more potent and selective for NanoLuc-BET BD1"}, {"measurement": "effect against BRD4-BD2 in NanoBRET (in words)", "setting": "NanoLuc-BRD4-BD2", "result": "no effect"}, {"measurement": "effect against BRDT-BD2 in NanoBRET (in words)", "setting": "NanoLuc-BRDT-BD2", "result": "no effect"}, {"measurement": "effect on the cell cycle (in words)", "setting": "[6]", "result": "induced Gi arrest"}, {"measurement": "apoptosis, Annexin V+ cells (in words)", "setting": "[7]", "result": "induced"}, {"measurement": "MYC expression (in words)", "setting": "[8]", "result": "suppressed"}, {"measurement": "effects on GAPDH expression (in words)", "setting": "[8]", "result": "no/minimal effects"}]}, {"smiles": "CNC(=O)[C@@H](CC1CCN(C(=O)Cc2ccc3[nH]c(=O)ccc3c2)CC1)NC(=O)c1ccc(-c2ccccc2)cn1", "note": "[Compound 10, (R)-N-(1-(methylamino)-1-oxo-3-(1-(2-(2-oxo-1,2-dihydroquinolin-6-yl)acetyl)piperidin-4-yl)propan-2-yl)-5-phenylpicolinamide]", "values": [{"measurement": "IC50", "setting": "BRDT-BD1 [1]; AlphaScreen", "result": 5.4, "unit": "nM"}, {"measurement": "BRDT-BD1 vs. BRDT-BD2 fold", "setting": "BRDT-BD1 [1]", "result": "3,875 fold"}, {"measurement": "IC50", "setting": "BRDT-BD2", "result": 20900, "unit": "nM"}, {"measurement": "IC50", "setting": "BRD4-BD1 [9]; AlphaScreen", "result": 7.1, "unit": "nM"}, {"measurement": "fold loss of selectivity over BRD4-BD2", "setting": "BRD4-BD1 [9]; AlphaScreen", "result": 1.6, "unit": "fold"}, {"measurement": "BRD4-BD1 vs. BRD4-BD2 fold", "setting": "BRD4-BD1 [9]; BD1 selectivity, AlphaScreen IC50 ratio", "result": "2,352 fold"}, {"measurement": "IC50", "setting": "BRD4-BD2", "result": 16700, "unit": "nM"}, {"measurement": "EC50", "setting": "AML cell line MV4; 11", "result": 143, "unit": "nM"}]}]}
